Measurements reported in US11471452B2, “Compositions and methods for treating or preventing vasomotor symptoms” (Mitsubishi Tanabe Pharma Corporation, priority 2017, dated 2022).

How the values were obtained:
[1] = tested on: female subjects experiencing Vasomotor Symptoms (VMS); assay: Phase Ib study: frequency of vasomotor symptoms (VMS), moderate and severe VMS counted, 14 days once nightly dosing; format: in vivo, human; parameters: Mean Observed Value in VMS frequency: unit not given here
Text: (§1) Study Design: This was a Phase Ib, randomized, double blind, placebo controlled study. The study design is illustrated in FIG. 1. Following the initial Screening visit, eligible subjects was given an actigraphy event monitor (watch) to record episodes of flashing as Vasomotor symptoms (VMS) events during a period of 2 weeks during Screening, in order to confirm VMS eligibility criteria (≥7 VMS/day on average during 2 weeks). Subjects may be required to return to the site during the Screening period to read or exchange the actigraphy event monitor. Subjects deemed eligible following review of VMS data were invited to attend the Clinical research unit (CRU) for one residential period of 16 days duration, including 14 days of Investigational Medicinal Product (IMP) administration. Subjects were admitted to the CRU 1 day prior to dosing (Day-1). No medication was administered on Day-1. On Day 1, subjects who meet the study eligibility criteria were randomized to receive one dose level of either Compound A (6 subjects) or a matching placebo (2 subjects) in a double-blind manner. Randomized treatment was administered once nightly, starting on Day 1, for a total duration of 14 days.
The anticipated dose levels of Compound A to be administered are 50 mg for Cohort 1, 20 mg for Cohort 2 and 5 mg for Cohort 3. Progression to the next dose level and selection of the dose to be administered in Cohort 2 and Cohort 3 is based on emerging safety and tolerability data and available core body temperature data from the preceding dose cohort. If the dose escalation stopping criteria are met, then the dose for the subsequent cohort is reduced. […] The three cohorts are dosed sequentially with a fourth additional cohort being dosed, if necessary, to investigate other dose levels.
Five (5) mg of Compound A was administered to the female subjects experiencing Vasomotor Symptoms (VMS), and as the above-mentioned assessments, a Frequency of VMS and a Core body temperature assessment were examined.
Here a moderate VMS and a severe VMS were counted as a VMS frequency.

[2] = tested on: female subjects experiencing Vasomotor Symptoms (VMS); assay: Phase Ib study: core body temperature assessment, change from baseline within 24 hours post-dose; format: in vivo, human; settings: 5 mg administered group, within 24 hours post-dose on Visit Day 1 or 7; like placebo, in comparison with 20 mg and 50 mg groups
Text: as §1
The anticipated dose levels of Compound A to be administered are 50 mg for Cohort 1, 20 mg for Cohort 2 and 5 mg for Cohort 3. […]

O=C(O)c1ccc(S(=O)(=O)N(Cc2ccc(OC(F)(F)F)cc2)c2ncc3ccccc3c2C2CC2)cc1 [Compound A, 4-({(4-cyclopropylisoquinolin-3-yl)[4-(trifluoromethoxy)benzyl]amino}sulfonyl)benzoic acid]
Effect on frequency of VMS versus placebo (FIG. 2) ([1]; 5 mg once nightly, 14 days of treatment): reduced the frequency of VMS significantly
Onset of the reduction effect of VMS frequency ([1]; 5 mg, shown during the first night of active drug therapy or later, within a few days, compared to estrogen or Paroxetine): immediate effect
Mean Observed Value in VMS frequency ([1]; Baseline, 5 mg Compound A group, moderate and severe VMS counted): 14.5
Mean Observed Value in VMS frequency ([1]; Day 1, 5 mg once nightly): 9.7
Mean Observed Value in VMS frequency ([1]; Day 2, 5 mg once nightly): 7.2
Mean Observed Value in VMS frequency ([1]; Day 3, 5 mg once nightly): 6.3
Mean Observed Value in VMS frequency ([1]; Day 4, 5 mg once nightly): 5.3
Mean Observed Value in VMS frequency ([1]; Day 5, 5 mg once nightly): 8.0
Mean Observed Value in VMS frequency ([1]; Day 6, 5 mg once nightly): 6.3
Mean Observed Value in VMS frequency ([1]; Day 7, 5 mg once nightly): 4.7
Mean Observed Value in VMS frequency ([1]; Day 8, 5 mg once nightly): 3.7
Mean Observed Value in VMS frequency ([1]; Day 9, 5 mg once nightly): 4.5
Mean Observed Value in VMS frequency ([1]; Day 10, 5 mg once nightly): 3.2
Mean Observed Value in VMS frequency ([1]; Day 11, 5 mg once nightly): 3.7
Mean Observed Value in VMS frequency ([1]; Day 12, 5 mg once nightly): 3.2
Mean Observed Value in VMS frequency ([1]; Day 13, 5 mg once nightly): 3.2
Mean Observed Value in VMS frequency ([1]; Day 14, 5 mg once nightly): 4.8
Change from baseline in core body temperature [2]: no significant reduced the core body temperature
